Measurements taken from publication PMC9886266, “New [1,2,4]triazolo[4,3-c]quinazolines as intercalative Topo II inhibitors: Design, synthesis, biological evaluation, and in silico studies” (PLOS ONE, 2023).

How the values were obtained:
BAX/Bcl-2 ratio = experiment: Western blot, BAX/Bcl-2 ratio; type: cell-based, human; conditions: HCT-116, 2.44 μM, 48 h; control = 1.00
Procedure: In comparison to the control, compound 16 elevated the level of the proapoptotic protein (BAX) by 2.18 times. […] Furthermore, compound 16 enhanced the BAX/Bcl-2 ratio by 4.38-fold in comparison to control cells.
The effects of compound 16 on the expression of BAX, and Bcl‐2 were determined using Western blot analysis [62–64]as described in Electronic Supplementary Material S2.7 in S1 Appendix. […]
for 48 h. Then, the cells were fixed in 70% ethanol at 4 °C for 12 h. After that, the cells were washed with cold PBS, incubated with 100 μl RNase A at 37 °C for 30 min, and stained with 400 μl PI in the dark at room temperature for further 30 min. The stained cells were measured using Epics XL-MCL™ Flow Cytometer (Beckman Coulter), and the data were analyzed using Flowing software (version 2.5.1, Turku Centre for Biotechnology, Turku, Finland).
S2.6. Flow cytometry analysis for apoptosis
Flow cytometry cell apoptosis analysis was used to investigate the apoptotic effect of the synthesized compounds. […] The stained cells were measured using Epics XL-MCL™ Flow Cytometer and analyzed using Flowing software. […]
The proteins expression of BAX, and Bcl‐2 were determined using Western blot analysis. […] Total protein concentrations in the supernatant were determined colorimetrically using the Pierce 660 nm Protein Assay method (Thermo Fisher Scientific, Rockford, IL), with BSA as the standard. […]

HepG2 cell line = experiment: MTT anti-proliferative assay, HepG2; type: cell-based; conditions: Homo sapiens, 48 h, three independent experiments, read-out: In vitro cytotoxicity IC50, HepG2
Procedure: In vitro antiproliferative activities of the target molecules were assessed against two human cancer cell lines namely, hepatocellular carcinoma (HepG2) and colorectal carcinoma (HCT-116) using MTT assay.
The anti-proliferative activity of the synthesized compounds was assessed using MTT assay protocol. A panel of human cancer cell lines namely, colorectal carcinoma (HCT-116) and hepatocellular carcinoma (HepG2) was used in this test. Doxorubicin was used as a positive control. The cell lines were got from ATCC (American Type Culture Collection) via the Holding company for biological products and vaccines (VACSERA, Cairo, Egypt). The anti-proliferative activities of the tested compounds were determined quantitatively as follows:
At first, the cells were cultured into a medium of RPMI-1640 with 10% fetal bovine serum. Then, two different antibiotics were added at 37°C in a 5% CO2 incubator: penicillin (100 units/mL) and streptomycin (100 μg/mL). Next, we seeded the cells in a 96-well plate by a density of 1.0 x 10^4 cells / well at 37°C for 48 h under 5% CO2. The synthesized compounds with different concentrations were applied into the cell lines and incubated for 48 h. After 48 h, 20 μl of MTT solution (5mg/mL) was added and incubated for 4 h. Then, DMSO (100 μl) was added into each well to dissolve the formed purple formazan. After that, a colorimetric assay was measured and recorded at absorbance of 570 nm using a plate reader (EXL 800, USA). The relative cell viability in percentage was calculated as (A570 of treated samples/A570 of untreated sample) X 100.
S2: Biological evaluation
S2.1. In vitro cytotoxic activity
The anti-proliferative activity of the synthesized compounds was assessed using MTT assay protocol. A panel of human cancer cell lines namely, colorectal carcinoma (HCT-116) and hepatocellular carcinoma (HepG2) was used in this test. As we targeted the DNA and Topo […]
cell lines were got from ATCC (American Type Culture Collection) via the Holding company for biological products and vaccines (VACSERA, Cairo, Egypt). The anti -proliferative activities of the tested compounds were determined quantitatively as follows:
At first, the cells were cultured into a medium of RPMI-1640 with 10% fetal bovine serum.
Then, two different antibiotics were added at 37 ᵒC in a 5% CO2 incubator: penicillin (100 units/mL) and streptomycin (100 µg/mL). Next, we seeded the cells in a 96 -well plate by a density of 1.0 x 10^4 cells / well at 37 ᵒC for 48 h under 5% CO2. The synthesized compounds with different concentrations were applied into the cell lines and incubated for 48 h. After 48 h, 20 µl of MTT solution (5mg/mL) was added and incubated for 4 h. Then, DMSO (100 µl) was added into each well to dissolve the formed purple formazan. After that, a colorimetric assay was measured and recorded at absorbance of 570 nm using a plate reader (EXL 800, USA). The relative cell viability in percentage was calculated as (A570 of treated samples/A570 of untreated sample) X 100. […]

In the case of `CCCNc1nc2ccccc2c2nnc(C(F)(F)F)n12` [Compound 16, N-Propyl-3-(trifluoromethyl)-[1,2,4]triazolo[4,3-c]quinazolin-5-amine], the “Protein expression (normalized to β-actin) BAX/Bcl-2 ratio” value (BAX/Bcl-2 ratio) is reported as 4.38 ± 0.86 and the IC50 (HepG2 cell line) is reported as 6.29 ± 0.3 µM.
